Measured values: US9695155B2, “Herbicidal substituted pyrimidinyloxy benzene compounds” (E. I. DU PONT DE NEMOURS AND COMPANY, priority 2013, dated 2017)

Key:
[1] = test system: giant foxtail; test: Test A preemergence; assay type: in vivo, Setaria faberii
Summary of the method: (§1)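 Pre- and postemergence greenhouse screen. Soil: loam + sand. Spray carrier: solvent mixture, non-phytotoxic, with surfactant. Post timing at 1–2 leaves, height 2–10 cm. Readout: visual injury on a 0–100 scale roughly 10 days after application, untreated plants as reference.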

[2] = test system: pigweed; test: Test A preemergence; assay type: in vivo, Amaranthus retroflexus
Summary of the method: as §1

[3] = test system: giant foxtail; test: Test A postemergence; assay type: in vivo, Setaria faberii
Summary of the method: as §1

[4] = test system: pigweed; test: Test A postemergence; assay type: in vivo, Amaranthus retroflexus
Summary of the method: as §1

[5] = test system: wheat, winter; test: Test C postemergence; assay type: in vivo, Triticum aestivum
Text: (§2) Seeds of plant species selected from blackgrass (Alopecurus myosuroides), Italian ryegrass (Lolium multiflorum), wheat, winter (winter wheat, Triticum aestivum), galium (catchweed bedstraw, Galium aparine), corn (Zea mays), large (Lg) crabgrass (Digitaria sanguinalis), giant foxtail (Setaria faberii), johnsongrass (Sorghum halepense), lambsquarters (Chenopodium album), morningglory (Ipomoea coccinea), yellow nutsedge (Cyperus esculentus), pigweed (Amaranthus retroflexus), ragweed (common ragweed, Ambrosia elatior), soybean (Glycine max), barnyardgrass (Echinochloa crus-galli), oilseed rape (Brassica napus), waterhemp (common waterhemp, Amaranthus rudis), kochia (Kochia scoparia), wild oat (Avena fatua), surinam grass (Brachiaria decumbens), foxtail, green (green foxtail, Setaria viridis), goosegrass (Eleusine indica), bromegrass, downy (downy bromegrass, Bromus tectorum), nightshade (eastern black nightshade, Solanum ptycanthum), cocklebur (common cocklebur, Xanthium strumarium), cupgrass, woolly (woolly cupgrass, Eriochloa villosa), bermudagrass (Cynodon dactylon), sunflower, (common oilseed sunflower, Helianthus annuus), Russian thistle (Salsola kali), and velvetleaf (Abutilon theophrasti) were planted into a blend of loam soil and sand and treated preemergence with test chemicals formulated in a non-phytotoxic solvent mixture which included a surfactant.
(§3) At the same time, plants selected from these crop and weed species and also barley, winter (winter barley, Hordeum vulgare), windgrass (Apera spica-venti), chickweed (common chickweed, Stellaria media), deadnettle (henbit deadnettle, Lamium amplexicaule), and canarygrass (littleseed canarygrass, Phalaris minor) were planted in pots containing Redi-Earth® planting medium (Scotts Company, 14111 Scottslawn Road, Marysville, Ohio 43041) comprising spaghnum peat moss, vermiculite, wetting agent and starter nutrients and treated with postemergence applications of test chemicals formulated in the same manner. Plants ranged in height from 2 to 18 cm (1- to 4-leaf stage) for postemergence treatments. Treated plants and controls were maintained in a greenhouse for 13 to 15 days, after which time all species were compared to controls and visually evaluated. Plant response ratings, summarized in Table C, are based on a scale of 0 to 100 where 0 is no effect and 100 is complete control. A dash (-) response means no test result.

[6] = test system: giant foxtail; test: Test C postemergence; assay type: in vivo, Setaria faberii
Summary of the method: (§4)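 Greenhouse herbicide screen. Pre: seeded loam/sand, sprayed at planting. Post: 1–4 leaf plants (2–18 cm) in peat-based mix. Formulation: solvent mixture + surfactant, non-phytotoxic. Readout: visual % control vs untreated, 13–15 d; dash = not tested.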

[7] = test system: ragweed; test: Test C postemergence; assay type: in vivo, Ambrosia elatior
Text: as §2, §3

[8] = test system: soybean; test: Test C postemergence; assay type: in vivo, Glycine max
Summary of the method: as §4

[9] = test system: wild oat; test: Test C postemergence; assay type: in vivo, Avena fatua
Text: as §2, §3

[10] = test system: velvetleaf; test: Test C postemergence; assay type: in vivo, Abutilon theophrasti
Summary of the method: as §4

[11] = test system: chickweed; test: Test C postemergence; assay type: in vivo, Stellaria media
Summary of the method: as §4

[12] = 125 g ai/ha, 0 to 100 scale where 0 is no effect and 100 is complete control
[13] = 500 g ai/ha, 0 to 100 scale where 0 is no effect and 100 is complete control
[14] = 16 g ai/ha, postemergence, 0 is no effect, 100 is complete control
[15] = 125 g ai/ha, postemergence, visual rating, scale 0 to 100 (0 no effect, 100 complete control)
[16] = Postemergence, 62 g ai/ha, scale 0 to 100 (0 no effect, 100 complete control)
[17] = 1000 g ai/ha, 0 to 100 scale, 0 no effect, 100 complete control, approx. 10 days
[18] = 1000 g ai/ha, 0 to 100 scale, 0 no effect, 100 complete control

## Clc1cnc(Oc2cccc(Br)c2-n2cc(I)nn2)nc1 [Compound 117]
[1]; [12]
  Plant response rating, Foxtail, Giant: 90
[1]; [13]
  Foxtail, Giant plant response rating: 100
[2]; [12]
  Plant response rating, Pigweed: 100
[2]; [13]
  Pigweed plant response rating: 100
[3]; [12]
  Plant response rating, Foxtail, Giant: 90
[3]; [13]
  Plant response rating, Foxtail, Giant: 90
[4]; [13]
  Plant response rating, Pigweed: 100
[5]; [14]
  Plant response rating (0 to 100), Wheat: 0
[5]; [15]
  Plant response rating, Wheat: 20
[5]; [16]
  Plant response rating, Wheat: 5
[6]; [14]
  Plant response rating (0 to 100), Foxtail, Giant: 20
[6]; [15]
  Plant response rating, Foxtail, Giant: 55
[6]; [16]
  Plant response rating, Foxtail, Giant: 40
[7]; [14]
  Plant response rating (0 to 100), Ragweed: 25
[7]; [15]
  Plant response rating, Ragweed: 60
[7]; [16]
  Plant response rating, Ragweed: 35
[8]; [14]
  Plant response rating (0 to 100), Soybean: 35
[8]; [15]
  Plant response rating, Soybean: 50
[8]; [16]
  Plant response rating, Soybean: 50
[9]; [14]
  Plant response rating (0 to 100), Oat, Wild: 10
[9]; [15]
  Plant response rating, Oat, Wild: 20
[9]; [16]
  Plant response rating, Oat, Wild: 10
[10]; [14]
  Plant response rating (0 to 100), Velvetleaf: 10
[10]; [15]
  Plant response rating, Velvetleaf: 45
[10]; [16]
  Plant response rating, Velvetleaf: 30
[11]; [14]
  Plant response rating (0 to 100), Chickweed: 50
[11]; [15]
  Plant response rating, Chickweed: 80
[11]; [16]
  Plant response rating, Chickweed: 70

## FCc1cn(-c2ccccc2Oc2ncc(Cl)cn2)nn1 [Compound 123]
[1]; [17]
  Foxtail, Giant plant response rating: 100
[2]; [17]
  Pigweed plant response rating: 100
[3]; [18]
  Plant response rating, Foxtail, Giant: 90
[4]; [18]
  Plant response rating, Pigweed: 100
[5]; [14]
  Plant response rating (0 to 100), Wheat: 0
[5]; [15]
  Plant response rating, Wheat: 5
[5]; [16]
  Plant response rating, Wheat: 0
[6]; [14]
  Plant response rating (0 to 100), Foxtail, Giant: 0
[6]; [15]
  Plant response rating, Foxtail, Giant: 20
[6]; [16]
  Plant response rating, Foxtail, Giant: 20
[7]; [14]
  Plant response rating (0 to 100), Ragweed: 35
[7]; [15]
  Plant response rating, Ragweed: 75
[7]; [16]
  Plant response rating, Ragweed: 70
[8]; [14]
  Plant response rating (0 to 100), Soybean: 45
[8]; [15]
  Plant response rating, Soybean: 90
[8]; [16]
  Plant response rating, Soybean: 65
[9]; [14]
  Plant response rating (0 to 100), Oat, Wild: 0
[9]; [15]
  Plant response rating, Oat, Wild: 0
[9]; [16]
  Plant response rating, Oat, Wild: 0
[10]; [14]
  Plant response rating (0 to 100), Velvetleaf: 60
[10]; [15]
  Plant response rating, Velvetleaf: 100
[10]; [16]
  Plant response rating, Velvetleaf: 80
[11]; [14]
  Plant response rating (0 to 100), Chickweed: 5
[11]; [15]
  Plant response rating, Chickweed: 60
[11]; [16]
  Plant response rating, Chickweed: 50

## N#Cc1cccc(Oc2ncc(Cl)cn2)c1-n1cc(SC(F)(F)F)cn1 [Compound 134, 3-[(5-chloro-2-pyrimidinyl)oxy]-2-[4-(trifluoromethylthio)-1-pyrazolyl]benzonitrile]
[1]; [13]
  Foxtail, Giant plant response rating: 100
[1]; Setaria faberi, pre-emergence, 240 h, 125 g ai/ha, 0 to 100 scale where 0 is no effect and 100 is complete control, read-out: Plant response rating, Foxtail, Giant
  pest or weed control at 125 g/ha: 100%
[2]; [13]
  Pigweed plant response rating: 100
[2]; Amaranthus retroflexus, pre-emergence, 125 g ai/ha, 0 to 100 scale where 0 is no effect and 100 is complete control, read-out: Plant response rating, Pigweed
  pest or weed control at 125 g/ha: 100%
[3]; [12]
  Foxtail, Giant plant response rating: 70
[3]; [13]
  Plant response rating, Foxtail, Giant: 100
[4]; [12]
  Pigweed plant response rating: 100
[4]; [13]
  Plant response rating, Pigweed: 100
[5]; Triticum aestivum, post-emergence, 16 g ai/ha, postemergence, 0 is no effect, 100 is complete control, read-out: Plant response rating (0 to 100), Wheat
  plant injury at 16 g/ha: 0%
[5]; Triticum aestivum, post-emergence, 125 g ai/ha, postemergence, visual rating, scale 0 to 100 (0 no effect, 100 complete control), read-out: Plant response rating, Wheat
  plant injury at 125 g/ha: 25%
[5]; Triticum aestivum, post-emergence, Postemergence, 62 g ai/ha, scale 0 to 100 (0 no effect, 100 complete control), read-out: Plant response rating, Wheat
  plant injury at 62 g/ha: 5%
[6]; Setaria faberi, post-emergence, 16 g ai/ha, postemergence, 0 is no effect, 100 is complete control, read-out: Plant response rating (0 to 100), Foxtail, Giant
  pest or weed control at 16 g/ha: 5%
[6]; Setaria faberi, post-emergence, 125 g ai/ha, postemergence, visual rating, scale 0 to 100 (0 no effect, 100 complete control), read-out: Plant response rating, Foxtail, Giant
  pest or weed control at 125 g/ha: 5%
[6]; Setaria faberi, post-emergence, Postemergence, 62 g ai/ha, scale 0 to 100 (0 no effect, 100 complete control), read-out: Plant response rating, Foxtail, Giant
  pest or weed control at 62 g/ha: 5%
[7]; Ambrosia artemisiifolia, post-emergence, 16 g ai/ha, postemergence, 0 is no effect, 100 is complete control, read-out: Plant response rating (0 to 100), Ragweed
  pest or weed control at 16 g/ha: 10%
[7]; Ambrosia artemisiifolia, post-emergence, 125 g ai/ha, postemergence, visual rating, scale 0 to 100 (0 no effect, 100 complete control), read-out: Plant response rating, Ragweed
  pest or weed control at 125 g/ha: 55%
[7]; Ambrosia artemisiifolia, post-emergence, Postemergence, 62 g ai/ha, scale 0 to 100 (0 no effect, 100 complete control), read-out: Plant response rating, Ragweed
  pest or weed control at 62 g/ha: 55%
[8]; Glycine max, post-emergence, 16 g ai/ha, postemergence, 0 is no effect, 100 is complete control
  Soybean plant response rating (crop injury, 0-100 scale) at 16 g/ha: 60%
[8]; Glycine max, post-emergence, 125 g ai/ha, postemergence, visual rating, scale 0 to 100 (0 no effect, 100 complete control), read-out: Plant response rating, Soybean
  Soybean plant response rating (crop injury, 0-100 scale) at 125 g/ha: 90%
[8]; Glycine max, post-emergence, Postemergence, 62 g ai/ha, scale 0 to 100 (0 no effect, 100 complete control)
  Soybean plant response rating (crop injury, 0-100 scale) at 62 g/ha: 65%
[9]; Avena fatua, post-emergence, 16 g ai/ha, postemergence, 0 is no effect, 100 is complete control, read-out: Plant response rating (0 to 100), Oat, Wild
  pest or weed control at 16 g/ha: 5%
[9]; Avena fatua, post-emergence, 125 g ai/ha, postemergence, visual rating, scale 0 to 100 (0 no effect, 100 complete control), read-out: Plant response rating, Oat, Wild
  pest or weed control at 125 g/ha: 10%
[9]; Avena fatua, post-emergence, Postemergence, 62 g ai/ha, scale 0 to 100 (0 no effect, 100 complete control), read-out: Plant response rating, Oat, Wild
  pest or weed control at 62 g/ha: 10%
[10]; Abutilon theophrasti, post-emergence, 16 g ai/ha, postemergence, 0 is no effect, 100 is complete control, read-out: Plant response rating (0 to 100), Velvetleaf
  pest or weed control at 16 g/ha: 30%
[10]; Abutilon theophrasti, post-emergence, 125 g ai/ha, postemergence, visual rating, scale 0 to 100 (0 no effect, 100 complete control), read-out: Plant response rating, Velvetleaf
  pest or weed control at 125 g/ha: 55%
[10]; Abutilon theophrasti, post-emergence, Postemergence, 62 g ai/ha, scale 0 to 100 (0 no effect, 100 complete control), read-out: Plant response rating, Velvetleaf
  pest or weed control at 62 g/ha: 50%
[11]; Stellaria media, post-emergence, 16 g ai/ha, postemergence, 0 is no effect, 100 is complete control, read-out: Plant response rating (0 to 100), Chickweed
  pest or weed control at 16 g/ha: 45%
[11]; Stellaria media, post-emergence, 125 g ai/ha, postemergence, visual rating, scale 0 to 100 (0 no effect, 100 complete control), read-out: Plant response rating, Chickweed
  pest or weed control at 125 g/ha: 80%
[11]; Stellaria media, post-emergence, Postemergence, 62 g ai/ha, scale 0 to 100 (0 no effect, 100 complete control), read-out: Plant response rating, Chickweed
  pest or weed control at 62 g/ha: 55%
